In patent publication US5063152A, “Synthetic peptidic substrate for determination of trypsin and α1” (Nitto Boseki Co., Ltd., priority 1985, dated 1991):
“And” between values parts separate entries of the source, which are not always exact repeats. Equal entries are not always repeated. Square brackets hold non-standard residues; d marks the D form. Peptide text beside a SMILES is read from it. * marks the point of attachment. pNA = O=[N+]([O-])c1ccc(N*)cc1; Cbz = O=C(OCc1ccccc1)*

Legend:
[1] = molecular target: T1, Trypsin (Try) (Bos taurus, UniProt P00760); experiment: substrate specificity test, reaction with trypsin; format: biochemical, Bovine; conditions: for measured optical density (absorbance), trypsin: initial substrate concentration 2 mmol/l, 37° C., 5 minutes; for relative reactivity of substrate with trypsin: reactivity of PS-1188N taken as 100, initial substrate concentration 2 mmol
T1 construct: purchased Worthington
T1 sequence (P00760 24-246): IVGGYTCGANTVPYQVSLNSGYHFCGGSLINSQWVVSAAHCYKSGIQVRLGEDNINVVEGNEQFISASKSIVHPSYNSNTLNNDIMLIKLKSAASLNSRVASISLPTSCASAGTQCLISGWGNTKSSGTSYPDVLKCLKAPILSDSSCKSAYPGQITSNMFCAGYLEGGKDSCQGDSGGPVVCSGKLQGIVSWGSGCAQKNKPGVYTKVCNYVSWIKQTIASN
Experimental: (§1) The synthetic peptides obtained in Examples 1 and 2 were subjected to a substrate specificity test by reacting with various enzymes under the following conditions.
(§2) 1) substrate solution: 10 mmol/l (concentration)
(§3) 2) buffer solution: tris-HCl buffer
(§4) Concentrations of NaCl, and CaCl2 and pH (at 25° C.) were adjusted as shown in Table 2 depending on enzymes to be reacted: […]
(§5) 4) Reaction stopper solution in the case of pNA: 10% acetic acid
(§6) 5) Color producing reagent for CHA: sodium pentacyanoamine ferroate
(§7) The buffer solution in an amount of 0.3 ml and 0.1 ml of an enzyme solution were placed in a test tube made of hard glass treated with silicon or a test tube made of a plastic (polystyrene) and preheated for 5 minutes in a constant temperature bath maintained at 37° C. Then, 0.1 ml of a substrate solution was added to the test tube and incubated at 37° C. for just 5 minutes. Subsequently, 2.0 ml of the reaction stopper solution (in the case of pNA) or the color producing reagent (in the case of CHA) was added to the reaction solution to terminate the enzymatic reaction. After allowing to stand at 37° C. for 10 minutes, absorbance (optical density) at 405 nm (in the case of pNA) or at 700 nm (in the case of coupled CHA) was measured. The initial substrate concentration was 2 mmol/l.

[2] = molecular target: T2, Thrombin (TH) (Bos taurus, UniProt P00735); experiment: substrate specificity test, reaction with thrombin; format: biochemical, Bovine; conditions: for measured optical density (absorbance), thrombin: initial substrate concentration 2 mmol/l, 37° C., 5 minutes; for relative reactivity in the case of thrombin: Table 1, PS-1188N = 100; for relative reactivity of substrate with thrombin: reactivity of PS-1188N taken as 100, initial substrate concentration 2 mmol
T2 construct: Thrombin; purchased Mochida Pharmaceutical Co., Ltd
Experimental: as §1, §2, §3, §4, §5, §6, §7

[3] = molecular target: T3, Plasmin (PL) (Homo sapiens, UniProt P00747); experiment: substrate specificity test, reaction with plasmin; format: biochemical; conditions: for measured optical density (absorbance), plasmin: initial substrate concentration 2 mmol/l, 37° C., 5 minutes; for relative reactivity in the case of plasmin: Table 1, PS-1188N = 100; for relative reactivity of substrate with plasmin: reactivity of PS-1188N taken as 100, initial substrate concentration 2 mmol
T3 construct: Plasmin Human; purchased Green Cross Corp
Experimental: as §1, §2, §3, §4, §5, §6, §7

[4] = molecular target: T4, Factor Xa (FXa) (Bos taurus, UniProt P00743); experiment: substrate specificity test, reaction with factor Xa; format: biochemical, Bovine; conditions: for measured optical density (absorbance), factor Xa: initial substrate concentration 2 mmol/l, 37° C., 5 minutes; for relative reactivity in the case of factor Xa: Table 1, PS-1188N = 100; for relative reactivity of substrate with factor Xa: reactivity of PS-1188N taken as 100, initial substrate concentration 2 mmol
T4 construct: Factor Xa; purchased Sigma Chem. Co
Experimental: as §1, §2, §3, §4, §5, §6, §7

[5] = molecular target: T5, Kallikrein (KL) (Sus scrofa, UniProt P00752); experiment: substrate specificity test, reaction with kallikrein; format: biochemical, Porcine; conditions: for measured optical density (absorbance), kallikrein: initial substrate concentration 2 mmol/l, 37° C., 5 minutes; for relative reactivity in the case of kallikrein: Table 1, PS-1188N = 100; for relative reactivity of substrate with kallikrein: reactivity of PS-1188N taken as 100, initial substrate concentration 2 mmol
T5 construct: purchased Sigma Chem. Co
Experimental: as §1, §2, §3, §4, §5, §6, §7

[6] = molecular target: T6, Urokinase (UK) (Homo sapiens, UniProt P00749); experiment: substrate specificity test, reaction with urokinase; format: biochemical; conditions: initial substrate concentration 2 mmol/l, 37° C., 5 minutes
T6 construct: purchased Mochida Pharmaceutical Co., Ltd
Experimental: as §1, §2, §3, §4, §5, §6, §7

T4 sequence (P00743 234-492 limits assumed): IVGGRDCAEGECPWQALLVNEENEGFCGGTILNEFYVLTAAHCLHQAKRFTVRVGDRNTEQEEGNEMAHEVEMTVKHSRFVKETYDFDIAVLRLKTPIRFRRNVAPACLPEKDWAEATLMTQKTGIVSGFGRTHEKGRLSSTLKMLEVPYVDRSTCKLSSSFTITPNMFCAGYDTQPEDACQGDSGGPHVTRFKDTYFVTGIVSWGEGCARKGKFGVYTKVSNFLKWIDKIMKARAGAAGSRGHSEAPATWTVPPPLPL
T4 sequence (P00743 41-180 partner limits assumed): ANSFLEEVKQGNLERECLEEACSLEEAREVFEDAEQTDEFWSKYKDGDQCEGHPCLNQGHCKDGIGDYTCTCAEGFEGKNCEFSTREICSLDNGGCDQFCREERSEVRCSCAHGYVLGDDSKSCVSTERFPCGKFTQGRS
T3 sequence (P00747 581-810 limits assumed): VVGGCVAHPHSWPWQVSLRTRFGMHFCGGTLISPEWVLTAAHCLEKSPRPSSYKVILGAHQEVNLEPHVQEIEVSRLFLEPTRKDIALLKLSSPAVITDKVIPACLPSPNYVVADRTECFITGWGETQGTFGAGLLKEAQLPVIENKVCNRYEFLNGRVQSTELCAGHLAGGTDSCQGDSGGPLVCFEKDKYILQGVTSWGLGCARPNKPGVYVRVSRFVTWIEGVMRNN
T3 sequence (P00747 97-580 partner limits assumed): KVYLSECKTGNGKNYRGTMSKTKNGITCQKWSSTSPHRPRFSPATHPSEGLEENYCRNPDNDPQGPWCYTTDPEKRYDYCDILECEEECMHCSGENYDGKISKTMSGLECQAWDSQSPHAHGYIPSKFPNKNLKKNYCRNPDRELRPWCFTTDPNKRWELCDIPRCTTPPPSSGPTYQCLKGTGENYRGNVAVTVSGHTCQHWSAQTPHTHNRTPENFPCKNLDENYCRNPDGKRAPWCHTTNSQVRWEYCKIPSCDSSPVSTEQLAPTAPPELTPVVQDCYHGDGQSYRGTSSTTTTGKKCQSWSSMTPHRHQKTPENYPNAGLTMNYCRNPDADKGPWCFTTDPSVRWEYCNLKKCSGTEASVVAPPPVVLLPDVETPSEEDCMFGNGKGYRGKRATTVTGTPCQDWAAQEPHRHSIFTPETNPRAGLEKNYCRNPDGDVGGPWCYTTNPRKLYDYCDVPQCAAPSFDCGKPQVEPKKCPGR
T5 sequence (P00752 8-246): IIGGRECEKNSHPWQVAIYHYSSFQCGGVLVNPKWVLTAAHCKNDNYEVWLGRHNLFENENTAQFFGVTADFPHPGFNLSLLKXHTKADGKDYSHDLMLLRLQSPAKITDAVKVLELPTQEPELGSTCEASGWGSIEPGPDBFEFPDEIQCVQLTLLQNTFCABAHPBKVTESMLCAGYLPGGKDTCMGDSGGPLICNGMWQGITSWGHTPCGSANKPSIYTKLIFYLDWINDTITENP

| measured optical density (absorbance), trypsin ([1]; 405 nm (pNA)) | relative reactivity of substrate with trypsin [1] | measured optical density (absorbance), thrombin ([2]; 405 nm (pNA)) | relative reactivity in the case of thrombin [2] | relative reactivity of substrate with thrombin [2] | measured optical density (absorbance), plasmin ([3]; 405 nm (pNA)) | relative reactivity in the case of plasmin [3] | relative reactivity of substrate with plasmin [3] | measured optical density (absorbance), factor Xa ([4]; 405 nm (pNA)) | relative reactivity in the case of factor Xa [4] | relative reactivity of substrate with factor Xa [4] | measured optical density (absorbance), kallikrein ([5]; 405 nm (pNA)) | relative reactivity in the case of kallikrein [5] | relative reactivity of substrate with kallikrein [5] | measured optical density (absorbance), urokinase ([6]; 405 nm (pNA)) | Structure (SMILES) | further results |
| --- | --- | --- | --- | --- | --- | --- | --- | --- | --- | --- | --- | --- | --- | --- | --- | --- |
| 2.601 | 1626 | 0.066 | 2200% | 2200 | 0.057 | 43% | 43 | 0.148 | 2114% | 2114 | 0.029 | 74% | 74 | 0.112 | CC(C)[C@H](NC(=O)OCc1ccccc1)C(=O)NCC(=O)N[C@@H](CCCNC(=N)N)C(=O)Nc1ccc([N+](=O)[O-])cc1 [CHR-TRY, Z-Val-Gly-Arg-pNA] (Cbz-Val-Gly-Arg-pNA) |  |
| 0.160 | 100 | 0.003 |  | 100 | 0.134 |  | 100 | 0.007 |  | 100 | 0.032 and 0.039 |  | 100 | 0.0 | CC(C)C[C@H](NC(=O)[C@H]1CCCN1)C(=O)N[C@@H](CCCCN)C(=O)Nc1ccc([N+](=O)[O-])cc1 [PS-1188N, H-D -Pro-Leu-Lys-pNA] (H-[dP]-Leu-Lys-pNA) |  |
|  | 86 |  | 0% | 0 |  | 3% | 3 |  | 37% | 37 |  | 2% | 2 |  | CC(C)C[C@H](NC(=O)[C@H]1CCCN1)C(=O)N[C@@H](CCCCN)C(=O)Nc1ccc(O)c(C(=O)O)c1 [PS-1188, H-D -Pro-Leu-Lys-CHA] | measured optical density (absorbance), trypsin ([1]; 700 nm (coupled CHA)): 0.314; measured optical density (absorbance), thrombin ([2]; 700 nm (coupled CHA)): 0.0; measured optical density (absorbance), plasmin ([3]; 700 nm (coupled CHA)): 0.008; measured optical density (absorbance), factor Xa ([4]; 700 nm (coupled CHA)): 0.006; measured optical density (absorbance), kallikrein ([5]; 700 nm (coupled CHA)): 0.002; measured optical density (absorbance), urokinase ([6]; 700 nm (coupled CHA)): 0.001 |
